This experiment in a line: Radical scavenging efficiency test: cigarette smoke bubbled through coarse glass frit into decalin with scavenger, DHR 6G fluorescent probe. Conditions: 150 μM to 300 μM, FIG. 6B. The method, then: Tests were conducted to study the effectiveness of higher fullerenes against radicals present in cigarette smoke (predominantly peroxyl radical). The cigarette smoke was bubbled through a cylindrical, coarse glass frit into a solvent (decalin) in which radical scavengers were dissolved. The smoke then exited this solvent and was passed through a second flask, in which a fluorescent probe that fluoresces upon oxidation by radicals was used (Dihydrorhodamine 6G (DHR 6G), purchased from Molecular Probes). The variation of fluorescent signal corresponds directly to the radical content of the cigarette smoke, and thus a measure of the reduction of radicals by the radical scavenger is measured. Signals were measured every 10 seconds.
Tests were conducted to study the sensitivity of the test apparatus in Example 2 to varying concentrations of Vitamin E as a radical scavenger to scavenge radicals present in cigarette smoke (predominantly peroxyl radical). The cigarette smoke was bubbled through a cylindrical, coarse glass frit into a solvent (decalin) in which radical scavengers were dissolved. […] The variation of fluorescent signal corresponds directly to the radical content of the cigarette smoke, and thus a measure of the reduction of radicals by the radical scavenger is measured. Signals were measured every 10 seconds.

For Vitamin E, the “Change of fluorescence signal on doubling the scavenger concentration” value was “very small deflection”.

Source of the values: patent publication US20050239717A1, “Higher fullerenes useful as radical scavengers” (Nano-C, Inc., priority 2003, published 2005).
